Measured values taken from patent publication US20210186930A1, “Methods of Treating Renal Disease Associated With Chronic Kidney Disease Such as Alport Syndrome” (UNIVERSITY OF MIAMI, priority 2018, published 2021).
“Also recorded” adds a separate entry of the source.

What was measured:
[1] = test system: Col4a3−/− mice; experiment: Mesangial expansion (PAS) and renal fibrosis (Picrosirius Red) in Col4a3-/- mice (Example 3, FIG. 6); assay type: in vivo, mouse; conditions: treated vs untreated Col4a3−/− mice; ezetimibe 5 mg/kg, ramipril 10 mg/kg, 4 weeks
Procedure: Assessment of mesangial expansion: Periodic acid-Schiff (PAS) staining of 4 μm-thick tissue sections was performed using a standard protocol. Twenty glomeruli per section were analyzed for mesangial expansion by semi quantitative analysis (scale 0-4) performed by two blinded independent investigators.
Picrosirius red staining: Paraffin-embedded sections (4 μm thick) were deparaffinized with xylene and a graded alcohol series. Sections were rinsed for 5 min in distilled water, stained for 1 hour with picrosirius red in saturated aqueous picric acid, examined under a light microscope and photomicrographs were taken. Histological images were visualized using a light microscope (Olympus BX 41, Tokyo, Japan) at 40× magnification and analyzed using Image J software.
The following experiment was performed to investigate which treatment, ezetimibe (EZ), ramipril (Ramp) or the combination of both drugs (EZ+Ramp), would best preserve renal function in Col4a3 knockout mice, all drugs were administered to 4-week-old Col4a3−/− mice for 4 weeks as follows: ezetimibe (Ez) was orally administered at a concentration of 5 mg/kg BW, ramipril was added to the drinking water at a concentration that would lead to a daily ramipril uptake of 10 mg/kg BW. All mice were sacrificed at 8 weeks of age. The following four groups of mice were analyzed: Col4a3^+/+, Col4a3^−/−+Ez, Col4a3^−/−+Ramp and Col4a3^−/−+Ez+Ramp.
PAS staining was performed to detect and quantify mesangial expansion, Picrossirius Red staining to detect and quantify renal fibrosis in treated compared to untreated Col4a3^−/− mice. […] Representative images for PAS staining are shown in FIG. 6A and of Picrosirius Red staining to detect fibrosis in […]. Bar graph quantifications for both are shown in FIGS. 6C and 6D, respectively.

[2] = ambient temperature; cited from earlier work
[3] = test system: Col4a3−/− mice; experiment: Renal cortex lipid content in Col4a3-/- mice (Example 4, FIG. 7); assay type: in vivo, mouse; conditions: for triglyceride (TG) content in kidney cortexes: treated vs untreated Col4a3−/− mice, ezetimibe 5 mg/kg, ramipril 10 mg/kg, 4 weeks
Procedure: Determination of cholesterol content in kidney cortex: Tissue from kidney cortexes was homogenized in hypotonic buffer (10 mM HEPES pH7.0, 15 mM KCl, 1 mM MgCl2, 10 mM phosphatase inhibitors). Lipids from 100 μl of the homogenate were extracted with 1 ml of hexane:isopropanol (3:2, v/v), dried and reconstituted in 100 μl of isopropanol-NP40 (9:1, v/v). Tissue fractions not soluble in the organic solvent, were further dried, reconstituted in 8 M urea, and assayed for protein concentration using Pierce BCA protein assay kit (ThermoFisher Scientific, MA, USA). Total cholesterol from lipid extracts was determined by the enzymatic method as previously described (Robinet, P., Wang, Z., Hazen, S. L. & Smith, J. D. A simple and sensitive enzymatic method for cholesterol quantification in macrophages and foam cells. Journal of lipid research 51, 3364-3369, 2010). Briefly, endogenous peroxides present were eliminated by incubating samples and standards with catalase (Sigma-Aldrich, MO, USA), 45 U/ml final concentration, for 15 min at 37° C. […] The plates were incubated at 37° C. for 30 min and fluorescence was read at 530 nm (Ex) and 580 nm (Em) in a plate reader (SpectraMax M5, Molecular Devices, CA, USA). Cholesteryl esters (CE) quantification was based on the method described from Toshimi M, et al. Briefly, 25 μl of samples was mixed with 150 μl of free cholesterol decomposition reagent (45 U/ml catalase, 1 U/ml cholesterol oxidase) and incubated 2-4 h at 37° C., and then the final volume was brought up to 250 μl prior to determining free and total cholesterol remaining. Total cholesterol remaining was determined by mixing 50 μl of end product reaction with 50 μl of reagent A, as described above. Free cholesterol remaining was determined similarly, but without including cholesterol esterase in the reagent. CE was calculated by the formula CE=(TC−FC)×DF, where TC is the total cholesterol remaining, FC the free cholesterol remaining and DF the dilution factor, in this case, 10. Lipid content: Oil Red 0 staining was performed on frozen tissue sections and triglyceride content was determined on snap frozen kidney tissue as described above. The following experiment was performed to investigate which treatment, ezetimibe (EZ), ramipril (Ramp) or the combination of both drugs (EZ+Ramp), would best preserve renal function in Col4a3 knockout mice, all drugs were administered to 4-week-old Col4a3−/− mice for 4 weeks as follows: ezetimibe (Ez) was orally administered at a concentration of 5 mg/kg BW, ramipril was added to the drinking water at a concentration that would lead to a daily ramipril uptake of 10 mg/kg BW. All mice were sacrificed at 8 weeks of age. The following four groups of mice were analyzed: Col4a3^+/+, Col4a3^−/−+Ez, Col4a3^−/−+Ramp and Col4a3^−/−+Ez+Ramp.

O=C1[C@H](CC[C@H](O)c2ccc(F)cc2)[C@@H](c2ccc(O)cc2)N1c1ccc(F)cc1 [ezetimibe]
mesangial expansion (PAS staining, score) [1]: significant reduction; also recorded: significantly reduced mesangial expansion | renal fibrosis (Picrosirius Red staining) [1]: significant reduction; also recorded: significantly reduced | stability [2]: stable | total cholesterol content (kidney cortexes) ([3]; ezetimibe only treated Col4a3−/− mice): no effect on the total cholesterol content | triglyceride (TG) content in kidney cortexes [3]: significantly decreased | triglyceride (TG) content in kidney cortexes ([3]; listed as ezetemibe): significantly decreased renal triglyceride content
